Experimental data: patent US20130095122A1, “Peptides or Antibodies Which Bind to Melanoma Inhibitory Activity (MIA) Protein” (priority 2010, published 2013)

Experiments:
MIA protein dimer = target: T1, MIA protein dimer (Homo sapiens, UniProt Q16674); assay: Western blot analysis of MIA dimer bands; assay type: biochemical; conditions: MIA preincubated with 1 μM peptide (FIG. 2B)
T1 construct: made in house; host or cells: cell-free Rapid Translation System RTS 500 E. coli HY Disulfite Kit (Roche)
T1 sequence (Q16674 25-131): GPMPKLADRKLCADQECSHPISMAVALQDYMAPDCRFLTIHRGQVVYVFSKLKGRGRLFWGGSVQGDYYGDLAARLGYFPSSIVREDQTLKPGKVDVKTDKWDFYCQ
Description: Protein samples were denaturated at 70° C. for 10 min after addition of reducing and denaturing Roti-Load buffer (Roth, Karlsruhe, Germany) and subsequently separated on sodium dodecyl sulfate 12.75% polyacrylamid gels (SDS-PAGE) (Invitrogen, Groningen, The Netherlands). In the multimerization studies, MIA protein (1 μg) was incubated with AR71 (2.5 μg) overnight at RT before being treated as described above. After transferring the proteins onto a polyvinylidene fluoride (PVDF) membrane (BioRad, Richmond, Va., USA), the membrane was blocked using 3% BSA/PBS for 1 h at RT and incubated with a 1:150 dilution of primary polyclonal rabbit anti MIA antibody (Biogenes, Berlin, Germany) in 3% BSA/PBS overnight at 4° C. After washing in PBS the membrane was incubated with a 1:2000 dilution of an […] coupled secondary antibody (Chemikon, Hofheim, Germany) for 2 h at RT. Finally, after washing steps, immunoreactions were visualized by nitro blue tetrazolium/5-bromo-4-chloro-3-indolyl phosphate (NBT/BCIP) (Invitrogen, Karlsruhe, Germany) staining.

[1] = target: T2, MIA-MIA interaction (MIA-Ru(bpy)3 / immobilized MIA-biotin) (Homo sapiens, UniProt Q16674); assay: heterogeneous transition-metal based fluorescence polarization (HTFP) assay of MIA-MIA interaction; assay type: binding; conditions: MIA-Ru(bpy)3 55 fM in wells coated with MIA-biotin
T2 sequence (Q16674 25-131): T1 sequence (Q16674 25-131)
Description: This becomes particularly evident in a heterogeneous transition metal-based fluorescence polarization assay (HTFP assay), wherein the ratio P/P0 is measured. P is the fluorescence polarization signal of a MIA protein labeled with a transition metal complex in the presence of substrate bound MIA-protein and of the peptide or antibody to be tested. P0 is the fluorescence polarization signal of free MIA-protein labeled with said luminescent transition metal complex in the absence of substrate bound MIA-protein and in the absence of said peptide or antibody. In the absence of the peptide or antibody, usually, the labeled MIA-protein would interact with the substrate bound MIA-protein, which, in turn, would contribute to a reduction in rotational mobility of the labeled MIA-protein, and therefore, the fluorescence polarization signal would increase upon such interaction. If, additionally, a peptide or antibody is present that interferes with such interaction, no or little dimerization/aggregation occurs and no or little increase in fluorescence polarization signal would be detected. […]
All measurements were performed at RT on a Polarstar Optima microplate reader (BMG Labtech, Offenburg, Germany). […]

reduction of MIA dimer bands (MIA protein dimer): strong reduction of the dimer bands
Substance: Ac-FHWRYPLPLPGQ-NH2 [AR71, FHWRYPLPLPGQ]
interference with MIA-MIA interaction (decrease in fluorescence polarization signal, P/P0) [1]: particularly potent in dissociating MIA dimers
